Common to all, as to assay: NCI-60 cell line screen, 48 h
For assay [1], the system named is A498 renal.
Assay [2] deals with SK-MEL-5 melanoma.
Assay [3] deals with A549 NSCLC.
In assay [4] the test system is NCI-H23 lung.
For assay [5], the system named is MALME-3M melanoma.
In assay [6] the test system is MDA-MB-435.
The subject of assay [7] is HS 578T breast.
Assay [8] concerns HOP-92 NSCLC.
In assay [9] the test system is K-562 leukemia.
The subject of assay [10] is SNB-75 CNS.

Each structure is given as a SMILES string.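 Assay format: 96-well plates, 48-hour exposure. Abbreviation: GI50, concentration required for 50% inhibition of growth. TGI is the concentration that stops growth completely.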

The record followed here is PubChem BioAssay (NCI).

For `Nc1ncn([C@H]2CC(O)[C@@H](CO)S2)c(=O)n1` (stereo not given in full), the GI50 in [1] was 1.99 µM; in [2], 1.17 µM; in [3], 2.79 µM; in assay [4] it was 5.34 µM; in assay [5], 88.6 µM; in assay [6], 0.783 µM. For the same molecule, the GI50 was 39.3 µM in assay [7], greater than 100 µM in assay [8], 2.2 µM in assay [9] and 53.9 µM in assay [10]. Also, the TGI in assay [1] was 58.1 µM; in [2] it was greater than 100 µM; in [3] it was greater than 100 µM; in assay [4] it was greater than 100 µM; in assay [5] it was greater than 100 µM; in assay [6], greater than 100 µM. Moreover, the TGI in assay [7], in assay [8], in [9] and in assay [10] was greater than 100 µM throughout.
Regarding `CC(=O)c1cc2c(N)c(C(=O)Nc3cccc4ccccc34)sc2nc1C`, the GI50 in [1] was 0.34 µM; in assay [2], 1.09 µM; in assay [3], 0.977 µM; in assay [4] it was 2.14 µM; in [5] it was 6.92 µM; in assay [6], 0.178 µM. The GI50 was 1.82 µM in [7], 6.78 µM in assay [8], 1.23 µM in [9] and 1.98 µM in assay [10]. Also, the TGI is greater than 50 µM in assay [1]; greater than 50 µM in [2]; greater than 50 µM in assay [3]; greater than 50 µM in [4]; greater than 50 µM in [5]; 1.08 µM in [6]. The TGI is greater than 50 µM in assay [7], greater than 50 µM in [8], greater than 50 µM in assay [9] and 35.5 µM in assay [10].
For the molecule `CC(C)=C[C@@H]1C[C@H](C)[C@H]2CC[C@H](C)c3c(O)c(OC4OC(C)C(O)C(O)C4O)c(C)c1c32` (stereo not given in full), the GI50 was 12.7 µM in [1]; 12 µM in assay [2]; 11.9 µM in assay [3]; 2.21 µM in assay [4]; 12.9 µM in [5]; 13.6 µM in assay [6]. Besides, the GI50 was 11.6 µM in [7], 14.8 µM in assay [8], 3.97 µM in assay [9] and 14.4 µM in assay [10]. Further, the TGI worked out at 26.7 µM in [1]; 24.7 µM in [2]; 24.2 µM in assay [3]; 20 µM in [4]; 29.8 µM in assay [5]; 27.2 µM in [6]. For the same molecule, the TGI in [7] worked out at 27.5 µM; in assay [8], 28.5 µM; in assay [9], 19.6 µM; in [10] it was 27.7 µM.
In the case of `COc1cc(N=Nc2cc(Cc3ccc(N(C)C)cc3)c(N)cc2N(C)C)c2ncccc2c1`, the GI50 was 0.809 µM in assay [1]; 0.227 µM in assay [2]; 0.494 µM in assay [3]; 0.287 µM in assay [4]; 0.621 µM in assay [5]; 0.515 µM in assay [6]. Besides, the GI50 in assay [7] was 0.473 µM; in [8], 0.266 µM; in [9], 0.139 µM; in [10] it was 0.574 µM. Besides, the TGI in assay [1] worked out at 3.07 µM; in assay [2], 0.714 µM; in assay [3], 2.39 µM; in [4] it was 1.34 µM; in assay [5] it was 2.28 µM; in assay [6] it was 2.07 µM. Besides, the TGI in [7] came to 2.35 µM; in assay [8], 1.5 µM; in assay [9] it was 1.74 µM; in assay [10] it was 2.04 µM.
For the molecule `O=c1cc(-c2ccccc2)oc2ccc(Cl)cc12`, the TGI in assay [1] is 98 µM; in [2] it was greater than 100 µM; in [3] it was greater than 100 µM; in [4], greater than 100 µM; in assay [5], greater than 82.4 µM; in assay [6] it was greater than 60.1 µM. In addition, the TGI is greater than 91.8 µM in [7], 73.2 µM in assay [8], greater than 96.2 µM in assay [9] and greater than 85.7 µM in assay [10].
Turning to `COc1cc2ncn(-c3cc(OCc4ccccc4C(F)(F)F)c(C(N)=O)s3)c2cc1OC`, the GI50 in [1] was 0.186 µM; in assay [2], 0.106 µM; in [3], 0.204 µM; in [4], 0.16 µM; in assay [5], 14.5 µM; in assay [6], 0.0552 µM. Moreover, the GI50 is 0.576 µM in assay [7], 2.2 µM in assay [8], 0.137 µM in assay [9] and 2.7 µM in assay [10]. The TGI in assay [1] is 5.2 µM; in [2] it was greater than 25 µM; in assay [3] it was greater than 25 µM; in [4], greater than 22.2 µM; in [5], greater than 25 µM; in assay [6], 0.282 µM. The TGI is greater than 8.59 µM in assay [7], 10.5 µM in assay [8], greater than 25 µM in assay [9] and 9.31 µM in assay [10].
